28 compounds from patent US20100292255A1, “Therapeutic Compounds and Their Use in Treating Diseases and Disorders” (Myriad Pharmaceuticals, Inc., priority 2007, published 2010) can be followed below.

Some results are limits rather than exact numbers.

For the test, the target named is T1, purified human Hsp90.
T1 construct: purified human Hsp90 (Stressgen, SPP-770)
Description: Hsp90 binding assay: displacement of BODIPY-labeled geldanamycin measured by fluorescence polarization. The note with it: BODIPY-GM 10 nM, Hsp90 30 nM, overnight at room temperature; read-out: GM displacement from purified Hsp90 measured by FP IC 50. Here is the method: Binding of the Example Compounds to purified Hsp90 was assayed by measuring the displacement of BODIPY-labeled geldanamycin (BODIPY-GM) from purified human Hsp90, using a fluorescence polarization assay adapted from Kim et al. (J. Biomolec. Screening, 9(5):375-381 (2004)). Compound dilutions (in 100% DMSO) were added to black-bottom 96-well plates (Greiner Bio-One, Monroe, N.C.) in 2% DMSO final, and equal volumes of BODIPY-GM (10 nM final) and purified human Hsp90 (Stressgen, SPP-770; 30 nM final) (Assay Designs, Ann Arbor, Mich.) in assay buffer (20 mM HEPES-KOH pH 7.3, 50 mM KCl, 5 mM MgCl2, 20 mM Na2MoO4, 0.01% NP-40, 0.1 mg/mL bovine gamma globulin [P2045; Invitrogen, Carlsbad, Calif.], 2 mM DTT) were added sequentially to yield a final volume of 50 microliters. Plates were incubated overnight at room temperature. Parallel and perpendicular fluorescence measurements were read (Analyst AD plate reader; LJL BioSystems, Middletown, Conn.) with excitation/emission wavelengths of 485/530 nm. Background fluorescence (buffer only) was subtracted, and fluorescence polarization (FP) values, expressed in mP units, were calculated from parallel and perpendicular fluorescence readings as follows:
FP=(parallel−perpendicular)/(parallel+perpendicular)*1000.
Percent inhibition was calculated by normalizing the FP values to those obtained in parallel reactions containing DMSO and subtracting these normalized values from 100%. Intrinsic compound fluorescence was independently monitored, and FP data points confounded by compound fluorescence were excluded from the analysis.
(In fluorescence polarisation assays a small probe gives low polarisation when free and higher when bound to something large.)
`CC(C)(C)OC(=O)N1CCC(CCn2c(Sc3cc4c(cc3Br)CCO4)nc3c(N)ncnc32)CC1` [Example Compound 172, tert-Butyl 4-(2-{6-amino-8-[(5-bromo-2,3-dihydro-1-benzofuran-6-yl)thio]-9H-purin-9-yl}ethyl)piperidine-1-carboxylate]: the IC50 came out at 300 nM.

With `C[C@H](O)C(=O)N1CCC(CCn2c(Sc3cc4c(cc3Br)CCO4)nc3c(N)ncnc32)CC1` [Example Compound 173, (2S)-1-[4-(2-{6-Amino-8-[(5-bromo-2,3-dihydro-1-benzofuran-6-yl)thio]-9H-purin-9-yl}ethyl)piperidin-1-yl]-1-oxopropan-2-ol], the IC50 was found to be 35 nM. Then `COC(=O)c1cc2c(cc1Sc1nc3c(N)ncnc3n1CCC1CCNCC1)OCO2` [Example Compound 174, Methyl 6-{[6-amino-9-(2-piperidin-4-ylethyl)-9H-purin-8-yl]thio}-1,3-benzodioxole-5-carboxylate], with 150 nM. Then `CCOC(=O)c1cc2c(cc1Sc1nc3c(N)ncnc3n1CCC1CCNCC1)OCO2` [Example Compound 175, ethyl 6-{[6-amino-9-(2-piperidin-4-ylethyl)-9H-purin-8-yl]thio}-1,3-benzodioxole-5-carboxylate], with 70 nM; and `Nc1ncnc2c1nc(Sc1cc3ccoc3cc1Br)n2CCC1CCN(C=O)CC1` [Example Compound 176, 4-(2-{6-Amino-8-[(6-bromo-1-benzofuran-5-yl)thio]-9H-purin-9-yl}ethyl)piperidine-1-carbaldehyde], with 900 nM; and `Nc1ncnc2c1nc(Sc1cc3occc3cc1Cl)n2CCC1CCN(C=O)CC1` [Example Compound 178, 4-(2-{6-Amino-8-[(5-chloro-1-benzofuran-6-yl)thio]-9H-purin-9-yl}ethyl)piperidine-1-carbaldehyde], with 305 nM. For `Nc1ncnc2c1nc(Sc1cc(Br)c3c(c1)CCO3)n2CCC1CCN(C=O)CC1` [Example Compound 179, 4-(2-{6-Amino-8-[(7-bromo-2,3-dihydro-1-benzofuran-5-yl)thio]-9H-purin-9-yl}ethyl)piperidine-1-carbaldehyde], the IC50 came to 4000 nM. Then `Nc1ncnc2c1nc(Sc1cc3c(cc1Br)OCC3)n2CCC1CCN(C=O)CC1` [Example Compound 180, 4-(2-{6-Amino-8-[(6-bromo-2,3-dihydro-1-benzofuran-5-yl)thio]-9H-purin-9-yl}ethyl)piperidine-1-carbaldehyde], with 400 nM; and `CC1(C)CCc2cc(Br)c(Sc3nc4c(N)ncnc4n3CCC3CCN(C=O)CC3)cc21` [Example Compound 181, 4-(2-{6-Amino-8-[(6-bromo-3,3-dimethyl-2,3-dihydro-1H-inden-5-yl)thio]-9H-purin-9-yl}ethyl)piperidine-1-carbaldehyde], with 1500 nM; and `Nc1ncnc2c1nc(Sc1cc(Br)c3occc3c1)n2CCC1CCN(C=O)CC1` [Example Compound 182, 4-(2-{6-Amino-8-[(7-bromo-1-benzofuran-5-yl)thio]-9H-purin-9-yl}ethyl)piperidine-1-carbaldehyde], with over 5000 nM. Next, `Nc1ncnc2c1nc(Sc1cc3c(cc1F)OCCO3)n2CCC1CCN(C=O)CC1` [Example Compound 183, 4-(2-{6-Amino-8-[(7-fluoro-2,3-dihydro-1,4-benzodioxin-6-yl)thio]-9H-purin-9-yl}ethyl)piperidine-1-carbaldehyde]: 2900 nM; `CN1CCOc2cc(Br)c(Sc3nc4c(N)ncnc4n3CCC3CCN(C=O)CC3)cc21` [Example Compound 184, 4-(2-{6-Amino-8-[(7-bromo-4-methyl-3,4-dihydro-2H-1,4-benzoxazin-6-yl)thio]-9H-purin-9-yl}ethyl)piperidine-1-carbaldehyde]: 310 nM; `CN1CCOc2cc(Sc3nc4c(N)ncnc4n3CCC3CCN(C=O)CC3)c(Cl)cc21` [Example Compound 185, 4-(2-{6-Amino-8-[(6-chloro-4-methyl-3,4-dihydro-2H-1,4-benzoxazin-7-yl)thio]-9H-purin-9-yl}ethyl)piperidine-1-carbaldehyde]: 400 nM.

For `CN1CCOc2cc(Sc3nc4c(N)ncnc4n3CCC3CCN(C=O)CC3)c(Br)cc21` [Example Compound 186, 4-(2-{6-Amino-8-[(6-bromo-4-methyl-3,4-dihydro-2H-1,4-benzoxazin-7-yl)thio]-9H-purin-9-yl}ethyl)piperidine-1-carbaldehyde], the IC50 was 65 nM. As to `CN1CCOc2cc(Sc3nc4c(N)ncnc4n3CCC3CCN(C=O)CC3)ccc21` [Example Compound 187, 4-(2-{6-Amino-8-[(4-methyl-3,4-dihydro-2H-1,4-benzoxazin-7-yl)thio]-9H-purin-9-yl}ethyl)piperidine-1-carbaldehyde], the IC50 came out at 5000 nM. With `Nc1ncnc2c1nc(Sc1cc3c(cc1Cl)OCO3)n2CCC1CCN(C=O)CC1` [Example Compound 188, 4-(2-{6-Amino-8-[(6-chloro-1,3-benzodioxol-5-yl)thio]-9H-purin-9-yl}ethyl)piperidine-1-carbaldehyde], the IC50 was 205 nM. Then `Nc1ncnc2c1nc(Sc1cc3occc3cc1Br)n2CCC1CCC(F)(F)CC1` [Example Compound 189, 8-[(5-Bromo-1-benzofuran-6-yl)thio]-9-[2-(4,4-difluorocyclohexyl)ethyl]-9H-purin-6-amine], with over 5000 nM. Then `Nc1ncnc2c1nc(Sc1cc3c(cc1Br)OCO3)n2CCC1CCC(F)(F)CC1` [Example Compound 190, 8-[(6-Bromo-1,3-benzodioxol-5-yl)thio]-9-[2-(4,4-difluorocyclohexyl)ethyl]-9H-purin-6-amine], with 650 nM; and `CC(C)(C)OC(=O)N1CCC(CCn2c(Sc3cc4occc4cc3Br)nc3c(N)ncnc32)CC1` [Example Compound 191, tert-Butyl 4-(2-{6-amino-8-[(5-bromo-1-benzofuran-6-yl)thio]-9H-purin-9-yl}ethyl)piperidine-1-carboxylate], with 2500 nM. Next, `CC(C)(C)OC(=O)N1CCC(CCn2c(Sc3cc4c(cc3C(F)(F)F)OCC4)nc3c(N)ncnc32)CC1` [Example Compound 192, tert-Butyl 4-[2-(6-amino-8-{[6-(trifluoromethyl)-2,3-dihydro-1-benzofuran-5-yl]thio}-9H-purin-9-yl)ethyl]piperidine-1-carboxylate]: over 5000 nM; `CN(C)C(=O)c1cc2c(cc1Sc1nc3c(N)ncnc3n1CCC1CCN(C=O)CC1)OCO2` [Example Compound 193, 6-({6-amino-9-[2-(1-formylpiperidin-4-yl)ethyl]-9H-purin-8-yl}thio)-N,N-dimethyl-1,3-benzodioxole-5-carboxamide]: 4300 nM; `CC(=O)OCC(=O)N1CCC(CCn2c(Sc3cc4occc4cc3Br)nc3c(N)ncnc32)CC1` [Example Compound 194, 2-[4-(2-{6-Amino-8-[(5-bromo-1-benzofuran-6-yl)thio]-9H-purin-9-yl}ethyl)piperidin-1-yl]-2-oxoethyl acetate]: 150 nM. In the case of `Nc1ncnc2c1nc(Sc1cc3occc3cc1Br)n2CCC1CCN(C(=O)CO)CC1` [Example Compound 195, 2-[4-(2-{6-Amino-8-[(5-bromo-1-benzofuran-6-yl)thio]-9H-purin-9-yl}ethyl)piperidin-1-yl]-2-oxoethanol], the IC50 was 45 nM.

On to `Nc1ncnc2c1nc(Sc1cc3occc3cc1Br)n2CCC1CCNCC1` [Example Compound 197, 8-[(5-Bromo-1-benzofuran-6-yl)thio]-9-(2-piperidin-4-ylethyl)-9H-purin-6-amine], for which the IC50 was 150 nM. Then `CC(=O)O[C@@H](C)C(=O)N1CCC(CCn2c(Sc3cc4occc4cc3Br)nc3c(N)ncnc32)CC1` [Example Compound 198, (1S)-2-[4-(2-{6-Amino-8-[(5-bromo-1-benzofuran-6-yl)thio]-9H-purin-9-yl}ethyl)piperidin-1-yl]-1-methyl-2-oxoethyl acetate], with 110 nM; and `C[C@H](O)C(=O)N1CCC(CCn2c(Sc3cc4occc4cc3Br)nc3c(N)ncnc32)CC1` [Example Compound 199, (2S)-1-[4-(2-{6-Amino-8-[(5-bromo-1-benzofuran-6-yl)thio]-9H-purin-9-yl}ethyl)piperidin-1-yl]-1-oxopropan-2-ol], with 190 nM; and `C[C@@H](OC(=O)C(C)(C)C)C(=O)N1CCC(CCn2c(Sc3cc4occc4cc3Br)nc3c(N)ncnc32)CC1` [Example Compound 200, (1R)-2-[4-(2-{6-Amino-8-[(5-bromo-1-benzofuran-6-yl)thio]-9H-purin-9-yl}ethyl)piperidin-1-yl]-1-methyl-2-oxoethyl pivalate], with 185 nM. Next, `C[C@@H](O)C(=O)N1CCC(CCn2c(Sc3cc4occc4cc3Br)nc3c(N)ncnc32)CC1` [Example Compound 201, (2R)-1-[4-(2-{6-Amino-8-[(5-bromo-1-benzofuran-6-yl)thio]-9H-purin-9-yl}ethyl)piperidin-1-yl]-1-oxopropan-2-ol]: 200 nM.
